Experimental data reported in patent US20250228796A1, “SKELETAL MUSCLE ENHANCER” (SATO PHARMACEUTICAL CO., LTD., priority 2022, published 2025).

What was measured:
Assay type in all cases: in vivo, mouse
[1] = tested on: Trim63 (MuRF1) mRNA expression; assay: Expression analysis of muscle atrophy-related gene Trim63 in muscle atrophy model; conditions: 3 days
Protocol: (§1) Under the anesthesia with isoflurane, the left hindlimb of the mouse in a bent state was fixed with a surgical stapler (Kaiser Plus. KEISEI MEDICAL INDUSTRIAL CO., LTD.). The right hindlimb of the same mouse was assigned to the sham-treatment side, and no fixation treatment was performed. After 3 or 7 days of the start of fixation, the tibialis anterior muscle (one of skeletal muscles) was collected by dissection. The sample collected after 3 days was supplied to the expression analysis of the muscle atrophy-related genes, and the sample collected after 7 days was supplied to the measurement of a muscle weight and the preparation of a muscle tissue section.
(§2) The tibialis anterior muscle was homogenized with Sepasol-RNA I Super G (NACALAI TESQUE, INC.), 1-bromo-3-chloropropane was added thereto, the mixture was stirred, and further centrifuged, then RNA was extracted from the supernatant. The extracted RNA was recovered with 2-propanol and 75% ethanol, and then subjected to the reverse transcription reaction (using ReverTra Ace qPCR RT Master Mix (Toyobo Co., Ltd.) according to the attached protocol) to synthesize cDNA. The synthesized CDNA was subjected to the real-time PCR method (using Applied Biosystems 7500 Real-Time PCR System (Thermo Fisher Scientific)) to measure mRNA expression of three genes, Trim63 (MuRF1), myostatin (Mstn), and Gapdh. Primer sequences used are as follows.
(§3) The expression levels of mRNA of Trim63 and Mstn (mTrim63 and mMstn) were calculated as a ratio to the expression level of mRNA of Gapdh (mGapdh). […]
(§4) Spermidine trihydrochloride (SPD) was administered to muscle atrophy model animals by three administration routes, and the expression variations of muscle atrophy-related genes Trim63 and Mstn were measured. […]
(§5) The mRNA expression of Trim63 and Mstn in the tibialis anterior muscle of the left hindlimb (fixed: Staple) and the right hindlimb (sham treatment: Sham) collected after 3 days of the start of fixation was measured.

[2] = tested on: myostatin (Mstn) mRNA expression; assay: Expression analysis of muscle atrophy-related gene Mstn in muscle atrophy model; conditions: 3 days
Protocol: as §1, §2, §3, §4, §5

[3] = tested on: tibialis anterior muscle of muscle damage model (CTX); assay: Muscle damage model (cardiotoxin): muscle weight and regenerated muscle fiber cross-sectional area; conditions: 7 days after CTX
Protocol: (§6) Seven-week old C57BL/6 Male mice (CLEA Japan, Inc.) were purchased, and used for experiment at the age of 8 weeks.
A model animal to which muscle damage had been caused by administion of snake venom cardiotoxin (CTX) was used. The model animal has been widely used in studies on regeneration from muscle damage.
Under the anesthesia with isoflurane, 50 μL of 10 μM CTX was administered to the tibialis anterior muscle of the right hindlimb of the mouse. Fifty μL of a phosphate buffer (PBS) was administered as a Vehicle to the tibialis anterior muscle of left hindlimb of the same mouse. After 7 days of the administration of CTX, the tibialis anterior muscle was collected by dissection, and supplied to the measurement of muscle weight and preparation of a muscle tissue section.
(§7) Body weight of the mouse was measured before collecting the tibialis anterior muscle. Furthermore, the weight of the collected tibialis anterior muscle was measured. From these measured values, the ratio (%) of the skeletal muscle weight per body weight of the mouse (weight of tibialis anterior muscle/body weight of mouse) was calculated.
(§8) Immediately after the collection of the tibialis anterior muscle, the tibialis anterior muscle was immersed in isopentane cooled with liquid nitrogen and was rapidly frozen. The frozen muscle tissue was cut into slices each having a thickness of 10 μm by using a cryostat (Leica Biosystems), and the slice was attached onto an antistripping coated slide glass (Matsunami Glass Ind., Ltd.).
A muscle tissue section was sufficiently air dried for 30 minutes under room temperature. After that, the muscle tissue sections was fixed by immersing it in acetone cooled to −30° C. and treating at −30° C. for 20 minutes. The fixed sections was air dried once and washed with PBS. Then the section was blocked by dropwisely adding a blocking reagent (Blocking One. NACALAI TESQUE, INC.) to the section and subjected to the blocking treatment for 1 hour. Next, a primary antibody (Anti-laminin-2 (α-2 Chain) antibody Rat monoclonal (Sigma-Aldrich)) obtained by being diluted 500 times with a blocking reagent was added dropwise, and the reaction was conducted at overnight at 4° C. Since laminin to which a primary antibody binds is a protein expressed in the basement membranes of all muscle cells, the laminin was used in this experiment as an index in order to measure the area of individual muscle cells in a section. The muscle tissue section after the reaction with the primary antibody was washed with PBS, and then was reacted for 1 hour with a secondary antibody (CF 488A Goat Anti-Rat IgG (H+L) (Biotium)) obtained by being diluted 500 times with the blocking reagent. The secondary antibody that is an anti-rat antibody conjugated with a fluorescent dye binds to the primary antibody, and stains the laminin. The muscle tissue sections after the reaction with the secondary antibody was washed with PBS, and sealed by using “VECTASHIELD Hard. Set with DAPI” (Vector), and then the fluorescence observation was performed with an inverted microscope FSX100 (Olympus).
The muscle fiber cross-sectional area was measured basis of the image data taken from the fluorescence observation. After the image data was taken into image analysis software ImageJ (NIH), the cross-sectional area of the individual cells were measured on the basis of the cell membrane stained with laminin. For the area measurement, “Analyze Particles” that is an add-in analysis program on ImageJ was used. The measurement results were shown as a distribution chart (histogram) of the areas and number of single-muscle fibers, and as an average value of the cross-sectional areas of all the single muscle fibers (mean muscle fiber area).
In the muscle damage model (Example 3), the regenerated muscle was used as a measurement target. […]

[4] = tested on: tibialis anterior muscle of muscle atrophy model; assay: Muscle atrophy model (hindlimb fixation): muscle weight and muscle fiber cross-sectional area; conditions: intramuscular
Description: as §6
A model animal to which muscle atrophy had been caused by a method of fixing a hindlimb (J Appl Physiol, vol. 106, pp. 2049-2059, 2009) was used.
as §1, §7, §8
A muscle tissue section was sufficiently air dried for 30 minutes under room temperature. After that, the muscle tissue sections was fixed by immersing it in acetone cooled to −30° C. and treating at −30° C. for 20 minutes. The fixed sections was air dried once and washed with PBS. Then the section was blocked by dropwisely adding a blocking reagent (Blocking One. NACALAI TESQUE, INC.) to the section and subjected to the blocking treatment for 1 hour. Next, a primary antibody (Anti-laminin-2 (α-2 Chain) antibody Rat monoclonal (Sigma-Aldrich)) obtained by being diluted 500 times with a blocking reagent was added dropwise, and the reaction was conducted at overnight at 4° C. Since laminin to which a primary antibody binds is a protein expressed in the basement membranes of all muscle cells, the laminin was used in this experiment as an index in order to measure the area of individual muscle cells in a section. The muscle tissue section after the reaction with the primary antibody was washed with PBS, and then was reacted for 1 hour with a secondary antibody (CF 488A Goat Anti-Rat IgG (H+L) (Biotium)) obtained by being diluted 500 times with the blocking reagent. The secondary antibody that is an anti-rat antibody conjugated with a fluorescent dye binds to the primary antibody, and stains the laminin. […] Set with DAPI” (Vector), and then the fluorescence observation was performed with an inverted microscope FSX100 (Olympus).
The muscle fiber cross-sectional area was measured basis of the image data taken from the fluorescence observation. After the image data was taken into image analysis software ImageJ (NIH), the cross-sectional area of the individual cells were measured on the basis of the cell membrane stained with laminin. […]

[5] = intraperitoneal, 19.6 mM 10 mL/kg once a day

Compound: Cl.Cl.Cl.NCCCCNCCCN [SPD, Spermidine trihydrochloride]
- Trim63 expression suppression (reduction vs Staple, Vehicle) ([1]; intramuscular, 196 mM 10 μL once a day, fixed left hindlimb (Staple), *P<0.05): 65.6%
- Trim63 expression suppression (reduction vs Staple, Vehicle) ([1]; intraperitoneal, 19.6 mM 10 mL/kg once a day, Staple): 42.3%
- Trim63 expression suppression ([1]; oral, 30 mM in drinking water): no expression suppression
- Mstn expression suppression (reduction vs Staple, Vehicle) ([2]; intramuscular, 196 mM 10 μL once a day, Staple, **P<0.01): 61.1%
- Mstn expression suppression [2, 5]: did not show significant expression suppression
- Mstn expression suppression ([2]; oral, 30 mM in drinking water): did not show significant expression suppression
- suppression of muscle weight loss by CTX ([3]; intramuscular, 196 mM 10 μL once a day): remarkable suppression
- histogram of regenerated single-muscle fiber area vs Vehicle ([3]; intramuscular): shifted to the right side
- mean muscle fiber area (regenerated muscle) vs Vehicle ([3]; intramuscular, ***P<0.001): significant increase
- suppression of muscle weight loss by CTX [3, 5]: a significant suppression was not observed
- histogram of regenerated single-muscle fiber area vs Vehicle ([3]; intraperitoneal): no shift
- mean muscle fiber area (regenerated muscle) vs Vehicle ([3]; intraperitoneal): no significant increase
- suppression of muscle weight loss by CTX ([3]; oral, 30 mM in drinking water): a significant suppression was not observed
- histogram of regenerated single-muscle fiber area vs Vehicle ([3]; oral): no shift
- mean muscle fiber area (regenerated muscle) vs Vehicle ([3]; oral): no significant increase
- muscle weight loss due to hindlimb fixation ([4]; 196 mM 10 μL once a day, 7 days, **P<0.01): significant suppression
- muscle weight vs Vehicle administration group ([4]; 196 mM 10 μL once a day, left hindlimb (fixed: Staple), 7 days after start of fixation): significant increase
- muscle weight vs Vehicle administration group ([4]; 196 mM 10 μL once a day, right hindlimb (sham treatment: Sham), 7 days after start of fixation): significant increase
- mean muscle fiber area vs Vehicle ([4]; 7 days after start of fixation, ***P<0.001): significant increase
- histogram of single-muscle fiber area vs Vehicle ([4]; 7 days after start of fixation, whole muscle): shifted to the right side
